Assay results as given in paper PMC9736855, “Discovery of 3-Amino-1H-pyrazole-Based Kinase Inhibitors to Illuminate the Understudied PCTAIRE Family” (International Journal of Molecular Sciences, 2022).

Key:
Experiment in all cases: DSF
Assay type in all cases: binding
SLK = biological target: T1, SLK (Homo sapiens, UniProt Q9H2G2)
T1 construct: purchased in-house DSF panel (SGC Frankfurt)
Procedure: (§1) Measurements were performed in duplicates.

MARK4 = biological target: T2, MARK4 (Homo sapiens, UniProt Q96L34)
T2 construct: purchased in-house DSF panel (SGC Frankfurt)
T2 sequence (Q96L34 59-310): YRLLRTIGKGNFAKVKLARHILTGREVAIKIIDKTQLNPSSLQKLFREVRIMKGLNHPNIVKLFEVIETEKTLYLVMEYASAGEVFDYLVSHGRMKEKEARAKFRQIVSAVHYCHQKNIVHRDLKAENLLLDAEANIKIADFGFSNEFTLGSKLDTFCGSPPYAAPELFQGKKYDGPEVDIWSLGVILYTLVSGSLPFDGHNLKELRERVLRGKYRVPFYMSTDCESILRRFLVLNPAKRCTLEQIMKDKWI
Procedure: as §1

STK39 = biological target: T3, STK39 (Homo sapiens, UniProt Q9UEW8)
T3 construct: purchased in-house DSF panel (SGC Frankfurt)
Procedure: as §1

PLK4 = biological target: T4, PLK4 (Homo sapiens, UniProt O00444)
T4 construct: purchased in-house DSF panel (SGC Frankfurt)
T4 sequence (O00444 2-275): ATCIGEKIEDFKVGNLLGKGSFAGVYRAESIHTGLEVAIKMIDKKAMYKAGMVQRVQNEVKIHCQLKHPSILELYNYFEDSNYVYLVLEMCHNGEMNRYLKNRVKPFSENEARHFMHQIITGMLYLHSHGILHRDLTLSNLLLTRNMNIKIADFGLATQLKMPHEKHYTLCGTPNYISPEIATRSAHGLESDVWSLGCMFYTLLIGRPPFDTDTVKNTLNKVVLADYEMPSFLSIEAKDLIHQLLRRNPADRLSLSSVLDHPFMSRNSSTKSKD
Procedure: as §1

PAK1 = biological target: T5, PAK1 (Homo sapiens, UniProt Q13153)
T5 construct: purchased in-house DSF panel (SGC Frankfurt)
T5 sequence (Q13153 249-545): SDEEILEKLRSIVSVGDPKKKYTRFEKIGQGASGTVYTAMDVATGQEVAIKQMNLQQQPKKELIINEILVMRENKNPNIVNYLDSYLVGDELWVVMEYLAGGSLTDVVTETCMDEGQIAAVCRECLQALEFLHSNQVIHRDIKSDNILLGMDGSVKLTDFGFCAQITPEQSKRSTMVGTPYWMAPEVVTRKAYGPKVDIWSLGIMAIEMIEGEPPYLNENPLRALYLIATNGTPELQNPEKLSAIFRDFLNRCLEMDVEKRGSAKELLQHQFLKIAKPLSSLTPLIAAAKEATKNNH
Procedure: as §1

DAPK1 = biological target: T6, DAPK1 (Homo sapiens, UniProt P53355)
T6 construct: purchased in-house DSF panel (SGC Frankfurt)
T6 sequence (P53355 1-285): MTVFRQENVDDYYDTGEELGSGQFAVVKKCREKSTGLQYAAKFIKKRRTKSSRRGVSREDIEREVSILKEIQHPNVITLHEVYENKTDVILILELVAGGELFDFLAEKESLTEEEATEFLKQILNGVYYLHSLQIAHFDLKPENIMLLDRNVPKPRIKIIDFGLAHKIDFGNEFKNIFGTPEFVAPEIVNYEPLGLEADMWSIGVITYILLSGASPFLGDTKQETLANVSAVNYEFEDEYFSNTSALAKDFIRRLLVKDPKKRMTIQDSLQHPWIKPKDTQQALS
Procedure: as §1

FLT1 = biological target: T7, FLT1 (Homo sapiens, UniProt P17948)
T7 construct: purchased in-house DSF panel (SGC Frankfurt)
T7 sequence (P17948 801-1158): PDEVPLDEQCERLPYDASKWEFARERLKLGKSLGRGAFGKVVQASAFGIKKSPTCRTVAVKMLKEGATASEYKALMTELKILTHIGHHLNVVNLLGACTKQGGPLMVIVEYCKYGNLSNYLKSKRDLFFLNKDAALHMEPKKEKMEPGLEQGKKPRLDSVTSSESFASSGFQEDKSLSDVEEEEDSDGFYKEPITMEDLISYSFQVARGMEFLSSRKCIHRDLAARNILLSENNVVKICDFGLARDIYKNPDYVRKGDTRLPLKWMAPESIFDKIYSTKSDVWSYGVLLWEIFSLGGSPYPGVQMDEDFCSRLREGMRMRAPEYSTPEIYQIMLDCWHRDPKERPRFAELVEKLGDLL
Procedure: as §1

EPHA7 = biological target: T8, EPHA7 (Homo sapiens, UniProt Q15375)
T8 construct: purchased in-house DSF panel (SGC Frankfurt)
T8 sequence (Q15375 590-899): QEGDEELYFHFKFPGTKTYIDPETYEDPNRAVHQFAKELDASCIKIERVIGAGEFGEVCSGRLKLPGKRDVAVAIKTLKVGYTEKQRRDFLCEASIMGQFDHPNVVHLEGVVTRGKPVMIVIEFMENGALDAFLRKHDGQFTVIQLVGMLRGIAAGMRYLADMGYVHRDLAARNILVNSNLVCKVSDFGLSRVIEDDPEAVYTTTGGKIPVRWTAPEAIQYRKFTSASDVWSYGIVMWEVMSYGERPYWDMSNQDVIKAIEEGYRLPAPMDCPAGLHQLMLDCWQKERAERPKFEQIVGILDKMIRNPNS
Procedure: as §1

STK10 = biological target: T9, STK10 (Homo sapiens, UniProt O94804)
T9 construct: purchased in-house DSF panel (SGC Frankfurt)
T9 sequence (O94804 18-317): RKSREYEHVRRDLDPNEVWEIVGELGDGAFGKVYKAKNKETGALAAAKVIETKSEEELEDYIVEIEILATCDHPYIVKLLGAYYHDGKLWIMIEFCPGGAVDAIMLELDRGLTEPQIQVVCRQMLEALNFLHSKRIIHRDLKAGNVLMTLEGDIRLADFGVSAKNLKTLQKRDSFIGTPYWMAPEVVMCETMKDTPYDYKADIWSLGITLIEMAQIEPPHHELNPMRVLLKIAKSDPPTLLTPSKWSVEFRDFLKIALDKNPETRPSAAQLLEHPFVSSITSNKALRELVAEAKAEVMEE
Procedure: as §1

WNK1 = biological target: T10, WNK1 (Homo sapiens, UniProt Q9H4A3)
T10 construct: purchased in-house DSF panel (SGC Frankfurt)
T10 sequence (Q9H4A3 206-483): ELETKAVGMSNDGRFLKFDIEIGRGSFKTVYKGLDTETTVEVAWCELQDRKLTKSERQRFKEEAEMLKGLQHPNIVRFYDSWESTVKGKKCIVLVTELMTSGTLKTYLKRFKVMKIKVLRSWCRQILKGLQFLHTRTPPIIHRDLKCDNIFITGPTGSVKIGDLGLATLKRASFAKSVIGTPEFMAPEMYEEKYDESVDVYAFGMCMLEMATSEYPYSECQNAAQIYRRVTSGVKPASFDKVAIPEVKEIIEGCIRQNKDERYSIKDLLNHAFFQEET
Procedure: as §1

MELK = biological target: T11, MELK (Homo sapiens, UniProt Q14680)
T11 construct: purchased in-house DSF panel (SGC Frankfurt)
T11 sequence (Q14680 whole entry): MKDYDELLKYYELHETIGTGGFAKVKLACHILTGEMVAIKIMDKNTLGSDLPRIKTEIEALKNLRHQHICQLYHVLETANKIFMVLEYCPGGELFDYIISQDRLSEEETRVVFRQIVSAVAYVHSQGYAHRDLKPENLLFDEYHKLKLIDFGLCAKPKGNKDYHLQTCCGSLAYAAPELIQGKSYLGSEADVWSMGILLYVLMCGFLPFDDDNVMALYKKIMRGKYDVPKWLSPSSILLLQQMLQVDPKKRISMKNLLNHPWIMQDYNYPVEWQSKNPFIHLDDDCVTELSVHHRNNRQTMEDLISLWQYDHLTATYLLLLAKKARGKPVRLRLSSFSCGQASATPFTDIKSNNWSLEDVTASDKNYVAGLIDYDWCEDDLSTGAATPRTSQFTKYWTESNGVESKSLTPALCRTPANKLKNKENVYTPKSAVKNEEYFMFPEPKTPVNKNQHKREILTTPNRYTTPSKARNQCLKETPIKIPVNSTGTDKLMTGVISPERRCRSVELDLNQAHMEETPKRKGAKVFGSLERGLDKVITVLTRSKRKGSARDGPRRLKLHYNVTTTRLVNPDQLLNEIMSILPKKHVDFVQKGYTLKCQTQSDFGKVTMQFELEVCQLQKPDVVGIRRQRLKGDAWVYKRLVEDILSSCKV
Procedure: as §1

MAP2K7 = biological target: T12, MAP2K7 (Homo sapiens, UniProt O14733)
T12 construct: purchased in-house DSF panel (SGC Frankfurt)
T12 sequence (O14733 120-380): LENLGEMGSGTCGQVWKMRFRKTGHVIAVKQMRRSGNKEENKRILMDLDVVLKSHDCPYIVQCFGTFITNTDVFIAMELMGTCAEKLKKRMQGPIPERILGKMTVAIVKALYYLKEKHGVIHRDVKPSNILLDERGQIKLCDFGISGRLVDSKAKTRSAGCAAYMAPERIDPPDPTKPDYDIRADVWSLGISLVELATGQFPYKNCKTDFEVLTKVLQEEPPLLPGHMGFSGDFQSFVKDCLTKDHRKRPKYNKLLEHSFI
Procedure: as §1

BMP2K = biological target: T13, BMP2K (Homo sapiens, UniProt Q9NSY1)
T13 construct: purchased in-house DSF panel (SGC Frankfurt)
T13 sequence (Q9NSY1 38-345): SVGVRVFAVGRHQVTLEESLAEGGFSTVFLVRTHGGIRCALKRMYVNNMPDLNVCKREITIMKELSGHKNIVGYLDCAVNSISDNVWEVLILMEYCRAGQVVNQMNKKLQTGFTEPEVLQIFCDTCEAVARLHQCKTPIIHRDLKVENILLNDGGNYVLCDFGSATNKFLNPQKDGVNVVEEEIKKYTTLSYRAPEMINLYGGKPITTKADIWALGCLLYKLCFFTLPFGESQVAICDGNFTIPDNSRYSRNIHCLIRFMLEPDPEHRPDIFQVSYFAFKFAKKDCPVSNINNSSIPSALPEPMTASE
Procedure: as §1

CDC42BPA = biological target: T14, CDC42BPA (Homo sapiens, UniProt Q5VT25)
T14 construct: purchased in-house DSF panel (SGC Frankfurt)
T14 sequence (Q5VT25 1-414): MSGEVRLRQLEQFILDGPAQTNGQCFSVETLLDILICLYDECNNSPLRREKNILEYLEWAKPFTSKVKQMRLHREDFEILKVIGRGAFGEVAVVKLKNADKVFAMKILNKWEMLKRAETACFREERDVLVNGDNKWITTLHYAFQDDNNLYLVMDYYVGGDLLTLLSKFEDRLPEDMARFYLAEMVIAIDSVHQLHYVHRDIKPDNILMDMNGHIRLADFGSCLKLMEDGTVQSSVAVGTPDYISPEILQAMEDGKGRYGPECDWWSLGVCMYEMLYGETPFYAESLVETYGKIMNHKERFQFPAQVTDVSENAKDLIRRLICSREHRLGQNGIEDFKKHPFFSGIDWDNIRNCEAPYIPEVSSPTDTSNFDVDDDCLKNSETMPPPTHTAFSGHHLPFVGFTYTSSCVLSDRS
Procedure: as §1

CAMK4 = biological target: T15, CAMK4 (Homo sapiens, UniProt Q16566)
T15 construct: purchased in-house DSF panel (SGC Frankfurt)
T15 sequence (Q16566 46-300): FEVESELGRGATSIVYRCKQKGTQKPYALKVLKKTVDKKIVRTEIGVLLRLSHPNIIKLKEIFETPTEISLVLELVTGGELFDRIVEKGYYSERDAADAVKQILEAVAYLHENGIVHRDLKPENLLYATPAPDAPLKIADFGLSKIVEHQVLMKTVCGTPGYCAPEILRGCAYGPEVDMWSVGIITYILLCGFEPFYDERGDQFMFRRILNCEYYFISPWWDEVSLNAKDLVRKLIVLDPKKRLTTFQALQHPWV
Procedure: as §1

EPHB3 = biological target: T16, EPHB3 (Homo sapiens, UniProt P54753)
T16 construct: purchased in-house DSF panel (SGC Frankfurt)
T16 sequence (P54753 616-910): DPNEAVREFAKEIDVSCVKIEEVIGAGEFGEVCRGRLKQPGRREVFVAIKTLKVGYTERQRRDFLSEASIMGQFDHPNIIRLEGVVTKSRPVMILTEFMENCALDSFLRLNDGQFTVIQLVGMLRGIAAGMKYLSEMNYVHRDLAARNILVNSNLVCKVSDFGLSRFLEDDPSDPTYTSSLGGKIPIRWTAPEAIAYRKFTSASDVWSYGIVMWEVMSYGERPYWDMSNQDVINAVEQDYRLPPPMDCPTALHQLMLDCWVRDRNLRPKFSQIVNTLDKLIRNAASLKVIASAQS
Procedure: as §1

DCAMKL1 = biological target: T17, DCAMKL1 (Homo sapiens, UniProt O15075)
T17 construct: purchased in-house DSF panel (SGC Frankfurt)
T17 sequence (O15075 390-647): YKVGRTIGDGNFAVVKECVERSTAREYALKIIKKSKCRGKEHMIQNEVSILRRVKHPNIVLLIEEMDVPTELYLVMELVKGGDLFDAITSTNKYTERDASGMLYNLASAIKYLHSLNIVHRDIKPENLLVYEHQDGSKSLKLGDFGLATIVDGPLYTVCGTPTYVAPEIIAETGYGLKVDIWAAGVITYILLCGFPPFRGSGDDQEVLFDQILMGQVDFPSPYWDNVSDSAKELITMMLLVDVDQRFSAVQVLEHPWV
Procedure: as §1

STK4 = biological target: T18, STK4 (Homo sapiens, UniProt Q13043)
T18 construct: purchased in-house DSF panel (SGC Frankfurt)
T18 sequence (Q13043 30-281): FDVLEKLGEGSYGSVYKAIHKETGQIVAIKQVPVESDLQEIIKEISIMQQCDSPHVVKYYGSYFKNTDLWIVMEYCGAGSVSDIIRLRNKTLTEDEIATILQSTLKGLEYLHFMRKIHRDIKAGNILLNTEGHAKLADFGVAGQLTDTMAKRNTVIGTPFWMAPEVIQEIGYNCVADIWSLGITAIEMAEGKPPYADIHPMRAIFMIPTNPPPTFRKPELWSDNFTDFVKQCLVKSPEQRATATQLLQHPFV
Procedure: as §1

Compound: CN[C@@H]1C[C@H]2O[C@@](C)([C@@H]1OC)n1c3ccccc3c3c4c(c5c6ccccc6n2c5c31)C(=O)NC4 [staurosporine, reference compound]
- ΔTm SLK (SLK): 18.0 °C
- ΔTm MARK4 (MARK4): 16.4 °C
- ΔTm STK39 (STK39): 9.6 °C
- ΔTm PLK4 (PLK4): 16.0 °C
- ΔTm PAK1 (PAK1): 6.6 °C
- ΔTm DAPK1 (DAPK1): 9.8 °C
- ΔTm FLT1 (FLT1): 13.6 °C
- ΔTm EPHA7 (EPHA7): 10.3 °C
- ΔTm STK10 (STK10): 23.3 °C
- ΔTm WNK1 (WNK1): 0.9 °C
- ΔTm MELK (MELK): 13.8 °C
- ΔTm MAP2K7 (MAP2K7): 8.4 °C
- ΔTm BMP2K (BMP2K): 19.1 °C
- ΔTm CDC42BPA (CDC42BPA): 2.8 °C
- ΔTm CAMK4 (CAMK4): 8.6 °C
- ΔTm EPHB3 (EPHB3): 5.0 °C
- ΔTm DCAMKL1 (DCAMKL1): 12.4 °C
- ΔTm STK4 (STK4): 14.9 °C
